From PubChem BioAssay AID248 (DTP/NCI, 2004)
Values joined by “and” are separate entries in the source; they are usually repeats but may differ in a detail not shown here. Equal values may be shown once. Inconclusive results and toxic doses are left out. Cut-off read from the data, not from the text of the source: active = T/C of 150% or more; inactive = T/C below 125%.

Test system: L1210 leukemia ip in BDF1 mice, survival T/C
Experiment: NCI In Vivo Anticancer Drug Screen. Data for tumor model L1210 Leukemia (intraperitoneal) in B6D2F1 (BDF1) mice
Details: endpoint: mean survival time, higher = longer survival
Summary of the method: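 Ratio derived from survival: compound-dosed mice over vehicle-dosed mice, all bearing a transplantable tumor.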

[1] = dose: 100.0 mg/kg/injection, schedule: Q04DX003 (ip), vehicle: saline with Tween-80
[2] = dose: 100.0 mg/kg/injection, schedule: Q04DX003 (ip), vehicle: saline
[3] = dose: 25.0 mg/kg/injection, schedule: Q04DX003 (ip), vehicle: Klucel (hydroxypropylcellulose) (HPC)
[4] = dose: 50.0 mg/kg/injection, schedule: Q04DX003 (ip), vehicle: Klucel (hydroxypropylcellulose) (HPC)
[5] = dose: 100.0 mg/kg/injection, schedule: Q04DX002 (ip), vehicle: Klucel (hydroxypropylcellulose) (HPC)
[6] = dose: 100.0 mg/kg/injection, schedule: Q04DX003 (ip), vehicle: Klucel (hydroxypropylcellulose) (HPC)
[7] = dose: 100.0 mg/kg/injection, schedule: Q04DX002 (ip), vehicle: saline with Tween-80
[8] = dose: 200.0 mg/kg/injection, schedule: Q04DX002 (ip), vehicle: saline with Tween-80
[9] = dose: 100.0 mg/kg/injection, schedule: Q01DX009 (ip), vehicle: saline
[10] = dose: 100.0 mg/kg/injection, schedule: Q01DX001 (ip), vehicle: saline
[11] = dose: 200.0 mg/kg/injection, schedule: Q01DX001 (ip), vehicle: saline
[12] = dose: 100.0 mg/kg/injection, schedule: Q01DX009 (ip), vehicle: Klucel (hydroxypropylcellulose) (HPC)
[13] = dose: 200.0 mg/kg/injection, schedule: Q04DX003 (ip), vehicle: saline with Tween-80
[14] = dose: 400.0 mg/kg/injection, schedule: Q04DX003 (ip), vehicle: saline with Tween-80

Measured: T/C

N#CC1(C#N)C2C=CC(C3CC=CC32)C1(C#N)C#N (stereo not given)
inactive: dose: 12.5 mg/kg/injection, schedule: Q01DX009 (ip), vehicle: saline with Tween-80 101 % of control | dose: 25.0 mg/kg/injection, schedule: Q01DX009 (ip), vehicle: saline with Tween-80 97 % of control | dose: 25.0 mg/kg/injection, schedule: Q04DX003 (ip), vehicle: saline with Tween-80 108 % of control | dose: 50.0 mg/kg/injection, schedule: Q04DX003 (ip), vehicle: saline with Tween-80 105 % of control | [1] 93 % of control

O=C/C=C/Nc1ccccc1
inactive: [2] 105 % of control | dose: 200.0 mg/kg/injection, schedule: Q04DX003 (ip), vehicle: saline 108 % of control | dose: 400.0 mg/kg/injection, schedule: Q04DX003 (ip), vehicle: saline 100 % of control

CCC1OCC(C(Cl)CCl)O1 (stereo not given)
inactive: dose: 100.0 mg/kg/injection, schedule: Q01DX009 (ip), vehicle: saline sonified 99 % of control

Nc1nc(N)nc(-c2cccc(Cl)c2)n1
inactive: [3] 107 % of control | [4] 101 % of control | [5] 111 % of control | [6] 102 % of control

CCOC(=O)C1(C(=O)OCC)C(C)CC2Nc3ccccc3C(=O)N21 (stereo not given)
inactive: [3] 87 % of control | [4] 91 % of control | [6] 91 % of control

C1CCCC2(CC1)CCCCC2
inactive: dose: 75.0 mg/kg/injection, schedule: Q01DX001 (ip), vehicle: saline with Tween-80 94 % of control | dose: 150.0 mg/kg/injection, schedule: Q01DX001 (ip), vehicle: saline with Tween-80 90 % of control | dose: 300.0 mg/kg/injection, schedule: Q01DX001 (ip), vehicle: saline with Tween-80 95 % of control

NNc1cc(Cl)ccc1Cl
inactive: [5] 96 % of control | dose: 200.0 mg/kg/injection, schedule: Q04DX002 (ip), vehicle: Klucel (hydroxypropylcellulose) (HPC) 96 % of control | dose: 400.0 mg/kg/injection, schedule: Q04DX002 (ip), vehicle: Klucel (hydroxypropylcellulose) (HPC) 100 % of control

COc1ccc(CCN2C(=O)c3cccc4c(Sc5ccccc5[N+](=O)[O-])ccc(c34)C2=O)cc1OC
inactive: [7] 90 % of control | [8] 111 % of control | dose: 400.0 mg/kg/injection, schedule: Q04DX002 (ip), vehicle: saline with Tween-80 93 % of control

CN(C)CCCN1CCC2(CC[C@H]3CCCC[C@@H]3C2)CC1
inactive: dose: 9.0 mg/kg/injection, schedule: Q01DX015 (ip), vehicle: saline 91 % of control | dose: 18.0 mg/kg/injection, schedule: Q01DX015 (ip), vehicle: saline 97 % of control | dose: 25.0 mg/kg/injection, schedule: Q01DX009 (ip), vehicle: saline 101 % of control | dose: 25.0 mg/kg/injection, schedule: Q04DX003 (ip), vehicle: saline 90 % of control | dose: 36.0 mg/kg/injection, schedule: Q01DX015 (ip), vehicle: saline 101 % of control | dose: 50.0 mg/kg/injection, schedule: Q01DX009 (ip), vehicle: saline 101 % of control | dose: 50.0 mg/kg/injection, schedule: Q04DX003 (ip), vehicle: saline 93 % of control | dose: 72.0 mg/kg/injection, schedule: Q01DX015 (ip), vehicle: saline 114 % of control | [9] 109 % of control | [2] 104 % of control

N#CC(C#N)c1ccc(C(C#N)C#N)cc1
inactive: dose: 50.0 mg/kg/injection, schedule: Q01DX001 (ip), vehicle: saline 103 % of control | [10] 122 % of control | [11] 103 % of control

NC(CSSCC(N)=NCCCCCSC12CC3CC(CC(C3)C1)C2)=NCCCCCSC12CC3CC(CC(C3)C1)C2
inactive: dose: 2.5 mg/kg/injection, schedule: Q04DX002 (ip), vehicle: Klucel (hydroxypropylcellulose) (HPC) 100 % of control | dose: 5.0 mg/kg/injection, schedule: Q04DX002 (ip), vehicle: Klucel (hydroxypropylcellulose) (HPC) 100 % of control | dose: 10.0 mg/kg/injection, schedule: Q04DX002 (ip), vehicle: Klucel (hydroxypropylcellulose) (HPC) 100 % of control and 90 % of control

OC(CCN1CCCCC1)(c1ccccc1)C1CCCC1 (stereo not given)
inactive: dose: 6.25 mg/kg/injection, schedule: Q01DX009 (ip), vehicle: Klucel (hydroxypropylcellulose) (HPC) 114 % of control | dose: 12.5 mg/kg/injection, schedule: Q01DX009 (ip), vehicle: Klucel (hydroxypropylcellulose) (HPC) 100 % of control | dose: 25.0 mg/kg/injection, schedule: Q01DX009 (ip), vehicle: Klucel (hydroxypropylcellulose) (HPC) 94 % of control | [3] 100 % of control | dose: 50.0 mg/kg/injection, schedule: Q01DX009 (ip), vehicle: Klucel (hydroxypropylcellulose) (HPC) 97 % of control | [4] 96 % of control | [12] 97 % of control | [6] 96 % of control

O=C(O)C(CCc1ccccc1)(CCc1ccccc1)C(=O)O
inactive: [9] 95 % of control | dose: 200.0 mg/kg/injection, schedule: Q01DX009 (ip), vehicle: saline 94 % of control | dose: 400.0 mg/kg/injection, schedule: Q01DX009 (ip), vehicle: saline 111 % of control

CCn1c(CC(O)(C(F)(F)F)C(F)(F)F)nc2ccccc21
inactive: [1] 101 % of control | [13] 98 % of control | [14] 101 % of control

O=C(OCC1OC(n2c(=O)[nH]c3scnc3c2=O)C(OC(=O)c2ccccc2)C1OC(=O)c1ccccc1)c1ccccc1 (stereo not given)
inactive: dose: 100.0 mg/kg/injection, schedule: Q01DX005 (ip), vehicle: saline 93 % of control | dose: 200.0 mg/kg/injection, schedule: Q01DX005 (ip), vehicle: saline 86 % of control

C=C(C)C1CCC(C)=CC1c1c(OC(=O)c2cc([N+](=O)[O-])cc([N+](=O)[O-])c2)cc(CCCCC)cc1OC(=O)c1cc([N+](=O)[O-])cc([N+](=O)[O-])c1 (stereo not given)
inactive: dose: 100.0 mg/kg/injection, schedule: Q01DX001 (ip), vehicle: Klucel (hydroxypropylcellulose) (HPC) 92 % of control | dose: 200.0 mg/kg/injection, schedule: Q01DX001 (ip), vehicle: Klucel (hydroxypropylcellulose) (HPC) 91 % of control | dose: 400.0 mg/kg/injection, schedule: Q01DX001 (ip), vehicle: Klucel (hydroxypropylcellulose) (HPC) 92 % of control

O=C(O)c1ccccc1C(=O)c1ccc(F)cc1
inactive: [10] 96 % of control | [11] 102 % of control | dose: 400.0 mg/kg/injection, schedule: Q01DX001 (ip), vehicle: saline 93 % of control

O=C(Nc1ccccc1O)c1ccccc1Cl
inactive: [12] 96 % of control | dose: 200.0 mg/kg/injection, schedule: Q01DX009 (ip), vehicle: Klucel (hydroxypropylcellulose) (HPC) 98 % of control | dose: 400.0 mg/kg/injection, schedule: Q01DX009 (ip), vehicle: Klucel (hydroxypropylcellulose) (HPC) 91 % of control

Cc1ccc(NSC(Cl)(Cl)Cl)cc1
inactive: dose: 50.0 mg/kg/injection, schedule: Q04DX002 (ip), vehicle: saline with Tween-80 101 % of control | [7] 106 % of control and 108 % of control | [8] 98 % of control and 123 % of control

COc1ccc(CCNC(=O)/C=C\C(=O)O)cc1OC
inactive: [1] 100 % of control | [13] 98 % of control | [14] 96 % of control

Clc1ccc2c(c1)N(C1CCCN(Cc3ccccc3)C1)c1ccccc1S2 (stereo not given)
inactive: dose: 100.0 mg/kg/injection, schedule: Q01DX001 (ip), vehicle: carboxymethylcellulose (CMC) 94 % of control | dose: 200.0 mg/kg/injection, schedule: Q01DX001 (ip), vehicle: carboxymethylcellulose (CMC) 94 % of control | dose: 400.0 mg/kg/injection, schedule: Q01DX001 (ip), vehicle: carboxymethylcellulose (CMC) 90 % of control
